In publication PMC10208956, “Microbial peptides activate tumour-infiltrating lymphocytes in glioblastoma” (Nature, 2023):

What was measured:
[1] = system: bulk TILs (patient 1635WI); test: Cytokine and chemokine secretion of bulk TILs stimulated with IPdBPs; type: cell-based, human; set-up: key to CD40 Ligand / Flt-3 Ligand / GM-CSF / Granzyme B / IFN-α / IFN-γ / IL-1rα / IL-1α / IL-1β / IL-2 / IL-3 / IL-4 / IL-5 / IL-6 / IL-7 / IL-10 / IL-12p70 / IL-13 / IL-15 / IL-17A / IL-33 / TNF-α / RANTES: pg/mL, negative-control amount subtracted; CXCL2/GROβ / CXCL10/IP-10 / CCL2/MCP-1 / CCL3/MIP-1α / CCL4/MIP-1β: unit not given beside the values; settings: secretion by bulk TILs after peptide stimulation; sheet 1e
From the text: Fig. 1 Elution of HLA class II-presented bacterial peptides from 19 glioblastomas and the stimulatory effect of IPdBPs on bulk TILs. a, Schematic of the immunopeptidome analyses of glioblastoma tissue, from which eluted peptides were annotated using the UniProt bacteria database (1). TILs or peripheral memory T cells were stimulated with IPdBPs (2 and 3). LC–MS, liquid chromatography–mass spectrometry; PBMC, peripheral blood mononuclear cell. The images in panel a were created using BioRender (https://biorender.com). b, Number of unique IPdBPs in patients with glioblastoma (n = 19) (data from patient 1635WI contains both primary and recurrent tumours together), with 344 unique IPdBPs identified (left). These peptides originated from 255 and 199 unique proteins and bacteria, respectively (3 technical replicates). […] As a control, peptidome data were also annotated using human protein database to identify eluted self-peptides. As shown, most of HLA class II-bound peptides are self-(human) peptides. IPdBPs of primary (bottom left, n = 18) and recurrent (bottom right, n = 23) tumours were separately annotated to their source bacteria at the phylum level. d, Bulk TILs (patient 1635WI) were stimulated with IPdBPs (See Supplementary Table 8), each in five replicate wells, and proliferation was measured after 5 days via ^3H-thymidine incorporation. […] The data are expressed as the mean value of all wells ± s.e.m. SIN3A* peptide was used as a positive control as TILs recognize this tumour antigen. T cells with APCs without any stimuli were used as a negative control. e, Heatmap of cytokine and chemokine secretion of TILs stimulated with three IPdBPs, which weakly stimulated proliferation. The secretion of each cytokine and chemokine was calculated by subtracting the corresponding cytokine and chemokine amount (pg ml^−1) of the negative control. TILs with APCs without any stimuli were used as a negative control. Also see Extended Data Fig. 1. Source data
(§1) Supernatants from each experiment were harvested a day before adding thymidine and frozen at −20 °C. Cytokines were measured using ELISA for human IFNγ ELISA MAX (BioLegend), human GM-CSF DuoSet ELISA (R&D Systems) and bead-based assays. A Synergy H1 hybrid multi-mode reader (Agilent) was used to measure the absorbance. The LEGENDplex Multi-analyte Flow Assay kit (BioLegend) is a 13-plex human TH cytokine panel, which includes IFNγ, TNF, IL-2, IL-4, IL-5, IL-6, IL-9, IL-10, IL-13, IL-17A, IL-17F, IL-21 and IL-22. […] LSR Fortessa Flow Cytometer (BD Biosciences) was used to measure cytokines, and data were analysed using FlowJo (Tree Star). The Human XL Cytokine Luminex Performance Assay Fixed Panel (R&D Systems) contains 45 analytes covering a broad range of various chemokines and cytokines.

[2] = system: TCC2D3; settings: 3 h
[3] = system: sorted CD4+ PE and FITC TCRVβ+ TILs; test: Proliferation of TCRBV-sorted CD4+ TILs (without TCRBV6.1 and TCRBV6.2); type: cell-based, human; settings: sheet 6b
From the text: TILs expressing specific TCRBVs were isolated from bulk TILs using a panel of 22 fluorescently labelled TCRBV antibodies that detect 27 different TCRBVs. Twelve TCRBV antibodies were labelled with PE and 10 with FITC (Beckman Coulter). […] After another wash, cells were stained with CD4 (1:100) (APC anti-human CD4, eBioscience), CD8 (1:100) (Pacific blue anti-human CD8, BioLegend), TCRBV-PE (1:25) (Beckman Coulter) and TCRBV-FITC (1:25) (Beckman Coulter) antibodies (Supplementary Table 12) for 30 min. Finally, cells were sorted, seeded at 5 × 10^4 cells per well in T cell medium without h-IL-2 and rested for 1 day before stimulation with 2 × 10^5 cells per well of irradiated autologous PBMCs (45 Gy) and peptide (10 µM).
Two populations of CD4^+ PE-TCRVβ^+ and CD4^+ FITC-TCRVβ^+ were sorted and later mixed together. […] Specific amount of each cytokine/chemokine (pg/ml) was calculated by subtracting the cytokines in the negative control cultures (no peptide control). Source data

[4] = system: TCC75; test: Cytokine/chemokine secretion of TCC75; type: cell-based, human; settings: 3 days; Extended Data Fig. 5e
[5] = system: TCC88; test: Cytokine and chemokine secretion of TCC88 after peptide stimulation; type: cell-based, human; settings: TCC88 supernatant after peptide stimulation; no peptide control subtracted; Fig. 3e
From the text: Fig. 3 Bacteria-derived and microbiota-derived peptides can stimulate TCC88 as well as the tumour antigen. a, Peptides with the highest predicted stimulatory scores were identified by searching various databases (see Methods). Numbers of unique 10-mer peptides within each database, synthesized peptides, TCC88 stimulatory peptides and the corresponding percentage of stimulatory peptides within each database are shown. […] Cytokine and chemokine secretion of TCC88 was examined and compared upon stimulation with these three different antigens. A specific amount of each cytokine and chemokine (pg ml^−1) was calculated by subtracting the cytokines in the negative control cultures (no peptide control). f, Cytotoxicity of TCC88 against the autologous tumour cell line after stimulation with 2 µM of SIN3A* and HGM3 (data represent the mean percentage of two replicate wells). E:T, effector to target. g, TCC88 was tested with HGM3 (10 µM) or SIN3A* (10 µM) peptides or both together (each 10 µM), and ^3H-thymidine incorporation was measured after 3 days (data represent the mean SI value of three replicate wells ± s.e.m.). Also see Extended Data Figs. 3 and 4. Source data
as §1

[6] = system: TCC88; settings: BLS-DRB3*02:02 as APCs; 3 days; SI ≥ 2 positive

Substance: AGPVVAAAVILKEDC [Peptidome.Bac 7]
- CCL2/MCP-1 [1]: 11.43
- CCL3/MIP-1α [1]: 1
- CCL4/MIP-1β [1]: 0
- CCL11/Eotaxin [1]: 0
- CCL19/MIP-3β [1]: 2.91
- CCL20/MIP-3α [1]: 3.7
- CD40 Ligand [1]: 994.39
- CXCL1/GROα [1]: 4.06
- CXCL2/GROβ [1]: 18.18
- CXCL8/IL-8 [1]: 0
- CXCL10/IP-10 [1]: 68.01
- Flt-3 Ligand [1]: 8.98
- GM-CSF [1]: 20.54
- Granzyme B [1]: 0
- IFN-α [1]: 0
- IFN-γ [1]: 18.67
- IL-1rα [1]: 382.82
- IL-1α [1]: 0
- IL-1β [1]: 0
- IL-2 [1]: 0
- IL-3 [1]: 10.62
- IL-4 [1]: 0
- IL-5 [1]: 0
- IL-6 [1]: 16.87
- IL-7 [1]: 1.18
- IL-10 [1]: 11.57
- IL-12p70 [1]: 2.8
- IL-13 [1]: 7.47
- IL-15 [1]: 0.56
- IL-17A [1]: 0
- IL-17E/IL-25 [1]: 0
- IL-33 [1]: 0
- RANTES [1]: 0
- TNF-α [1]: 9.2

Substance: Ac-AVVTQPDK-NH2 [Pep-bac9]
- SI: TCC2D3 [2]: 2.5

Substance: Ac-KEDMSVPLIKSIRK-NH2 [Pep-bac10]
- SI: TCC2D3 [2]: 2.2

Substance: Ac-SNGDLDAIVVARAGLA-NH2 [Pep-bac16]
- SI: TCC2D3 [2]: 2.2

Substance: Ac-VFDFNHSAIK-NH2 [HGM62]
- Proliferation (SI) of sorted CD4+ TILs ([3]; replicate 1): 1.423
- Proliferation (SI) of sorted CD4+ TILs ([3]; replicate 2): 1.043
- Proliferation (SI) of sorted CD4+ TILs ([3]; replicate 3): 2.568

Substance: Ac-VWEFNHSLHP-NH2 [HGM27]
- cytokine and chemokine profile of TCC75 (in words) [4]: secretes pro-inflammatory cytokines
- Proliferation (SI) of sorted CD4+ TILs ([3]; replicate 1): 2.099
- Proliferation (SI) of sorted CD4+ TILs ([3]; replicate 2): 2.919
- Proliferation (SI) of sorted CD4+ TILs ([3]; replicate 3): 2.416

Substance: LIVFNHNCLK [HB84, UniProt bacteria database peptide]
- CCL20/MIP-3α [5]: 8.75 pg/mL
- CD40 Ligand [5]: 1473.06 pg/mL
- CXCL1/GROα [5]: 73.57 pg/mL
- CXCL2/GROβ [5]: 49.19 pg/mL
- CXCL8/IL-8 [5]: 0 pg/mL
- CXCL10/IP-10 [5]: 104.46 pg/mL
- Flt-3 Ligand [5]: 100.29 pg/mL
- Fractalkine [5]: 347.74 pg/mL
- GM-CSF [5]: 5082.78 pg/mL
- Granzyme B [5]: 2479.01 pg/mL
- IFN-α [5]: 2.75 pg/mL
- IFN-γ [5]: 910.88 pg/mL
- IL-1rα [5]: 520.19 pg/mL
- IL-1α [5]: 12.29 pg/mL
- IL-1β [5]: 17.01 pg/mL
- IL-2 [5]: 167.02 pg/mL
- IL-3 [5]: 131.91 pg/mL
- IL-4 [5]: 71.31 pg/mL
- IL-5 [5]: 29.89 pg/mL
- IL-6 [5]: 102.19 pg/mL
- IL-7 [5]: 0.74 pg/mL
- IL-10 [5]: 2358.6 pg/mL
- IL-12p70 [5]: 19.71 pg/mL
- IL-13 [5]: 1338.92 pg/mL
- IL-15 [5]: 2.33 pg/mL
- IL-17A [5]: 1.97 pg/mL
- IL-17E/IL-25 [5]: 0 pg/mL
- IL-33 [5]: 15.02 pg/mL
- TNF-α [5]: 3267.52 pg/mL

Substance: LLDFNHSMVN [HGM26, human gut microbiota peptide]
- Proliferation (SI) of sorted CD4+ TILs ([3]; replicate 1): 1.889
- Proliferation (SI) of sorted CD4+ TILs ([3]; replicate 2): 1.31
- Proliferation (SI) of sorted CD4+ TILs ([3]; replicate 3): 1.491

Substance: LVDFFHSSAI [HGM32]
- recognition by TCC88, proliferation (in words) [6]: stimulatory

Substance: LWEFNNVSLA [HB4, UniProt bacteria database peptide]
- Proliferation (SI) of sorted CD4+ TILs ([3]; replicate 1): 1.585
- Proliferation (SI) of sorted CD4+ TILs ([3]; replicate 2): 1.003
- Proliferation (SI) of sorted CD4+ TILs ([3]; replicate 3): 1.832

Substance: LYEFNHSPGF [HGM7, human gut microbiota peptide]
- Proliferation (SI) of sorted CD4+ TILs ([3]; replicate 1): 2.804
- Proliferation (SI) of sorted CD4+ TILs ([3]; replicate 2): 1.758
- Proliferation (SI) of sorted CD4+ TILs ([3]; replicate 3): 3.368

Substance: QALVTLEENAVIG [Peptidome.Bac 14]
- CCL2/MCP-1 [1]: 351.37
- CCL3/MIP-1α [1]: 23.58
- CCL4/MIP-1β [1]: 78.06
- CCL11/Eotaxin [1]: 0
- CCL19/MIP-3β [1]: 2.57
- CCL20/MIP-3α [1]: 4.22
- CD40 Ligand [1]: 666.28
- CXCL1/GROα [1]: 68.11
- CXCL2/GROβ [1]: 60.34
- CXCL8/IL-8 [1]: 917.52
- CXCL10/IP-10 [1]: 111.72
- Flt-3 Ligand [1]: 48.51
- GM-CSF [1]: 38.36
- Granzyme B [1]: 0
- IFN-α [1]: 0
- IFN-γ [1]: 8.17
- IL-1rα [1]: 700.66
- IL-1α [1]: 0
- IL-1β [1]: 0
- IL-2 [1]: 2.34
- IL-3 [1]: 0.97
- IL-4 [1]: 0
- IL-5 [1]: 0
- IL-6 [1]: 110.14
- IL-7 [1]: 0.64
- IL-10 [1]: 11.57
- IL-12p70 [1]: 0
- IL-13 [1]: 23.19
- IL-15 [1]: 0.56
- IL-17A [1]: 0
- IL-17E/IL-25 [1]: 0
- IL-33 [1]: 4.57
- RANTES [1]: 0
- TNF-α [1]: 26.86

Substance: QLEFNHAIAS [HB2, UniProt bacteria database peptide]
- Proliferation (SI) of sorted CD4+ TILs ([3]; replicate 1): 1.556
- Proliferation (SI) of sorted CD4+ TILs ([3]; replicate 2): 1.363
- Proliferation (SI) of sorted CD4+ TILs ([3]; replicate 3): 1.455

Substance: VFAIDRAGLVGEDGPT [Peptidome.Bac 5]
- CCL2/MCP-1 [1]: 40.48
- CCL3/MIP-1α [1]: 7.07
- CCL4/MIP-1β [1]: 0
- CCL11/Eotaxin [1]: 0
- CCL19/MIP-3β [1]: 0
- CCL20/MIP-3α [1]: 0
- CD40 Ligand [1]: 0
- CXCL1/GROα [1]: 0
- CXCL2/GROβ [1]: 5.86
- CXCL8/IL-8 [1]: 0
- CXCL10/IP-10 [1]: 62.72
- Flt-3 Ligand [1]: 1.13
- GM-CSF [1]: 16.51
- Granzyme B [1]: 0
- IFN-α [1]: 0
- IFN-γ [1]: 0
- IL-1rα [1]: 212.62
- IL-1α [1]: 0
- IL-1β [1]: 0
- IL-2 [1]: 0
- IL-3 [1]: 0
- IL-4 [1]: 0
- IL-5 [1]: 0
- IL-6 [1]: 8.61
- IL-7 [1]: 0.34
- IL-10 [1]: 0
- IL-12p70 [1]: 0
- IL-13 [1]: 16.57
- IL-15 [1]: 0
- IL-17A [1]: 0
- IL-17E/IL-25 [1]: 0
- IL-33 [1]: 0
- RANTES [1]: 0
- TNF-α [1]: 24.29
